Molecular target: T1, human CB2R (Homo sapiens, UniProt P34972)
T1 construct: host or cells: CHO cells
Experiment: CB2R mediated modulation of cAMP synthesis
Type: cell-based
Conditions: for agonistic activity: found through the use of the above described assays
Experimental: B. CB2R Mediated Modulation of cAMP Synthesis:
CHO cells expressing human CB2R (Euroscreen) were plated at a density of 5000 cells per well in 384 well plates and incubated overnight at 37° C. After removing the media, the cells were treated with test compounds diluted in stimulation buffer containing 1 mM IBMX, 0.25% BSA and 10 uM Forskolin. The assay was incubated for 30 minutes at 37° C. Cells were lysed and the cAMP concentration was measured using DiscoverX-XS cAMP kit, following the manufacturer's protocol. In this setting, agonists will decrease forskolin induced production of cAMP while inverse agonists will further increase forskolin induced production of cAMP. EC50 of agonists were calculated as follows. The maximal amount of cAMP produced by forskolin compared to the level of cAMP inhibited by 1 uM CP55940 is defined as 100%. The EC50 value of each test compound was determined as the concentration at which 50% of the forskolin-stimulated cAMP synthesis was inhibited. Data was analyzed using a four-parameter logistic model. (Model 205 of XLfit 4.0).

T1 sequence (P34972 whole entry): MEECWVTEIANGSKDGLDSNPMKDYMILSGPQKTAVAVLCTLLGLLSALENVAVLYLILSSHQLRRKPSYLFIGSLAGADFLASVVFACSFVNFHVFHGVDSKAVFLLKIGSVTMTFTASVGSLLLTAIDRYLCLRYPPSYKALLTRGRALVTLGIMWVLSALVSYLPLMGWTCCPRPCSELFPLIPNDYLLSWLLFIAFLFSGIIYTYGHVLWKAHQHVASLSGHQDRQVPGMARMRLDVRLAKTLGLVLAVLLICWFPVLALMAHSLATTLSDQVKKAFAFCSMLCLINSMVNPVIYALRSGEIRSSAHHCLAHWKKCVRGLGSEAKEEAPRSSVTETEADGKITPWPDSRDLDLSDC

SMILES: CC(C)(C(=O)Nc1ccc(C(F)(F)F)cn1)S(=O)(=O)CC1CCCO1 (stereo not shown) [2-Methyl-2-(tetrahydro-furan-2-ylmethanesulfonyl)-N-(5-trifluoromethyl-pyridin-2-yl)-propionamide]
- agonistic activity: agonistic activity

SMILES: CC(C)(C(=O)Nc1ccc(C(F)(F)F)cn1)S(=O)(=O)CC1CCCCO1 (stereo not shown) [2-Methyl-2-(tetrahydro-pyran-2-ylmethanesulfonyl)-N-(5-trifluoromethyl-pyridin-2-yl)-propionamide]
- agonistic activity: agonistic activity

SMILES: CC(C)(C(=O)Nc1ccc(C(F)(F)F)cn1)S(=O)(=O)C1CCOCC1 [2-Methyl-2-(tetrahydro-pyran-4-sulfonyl)-N-(5-trifluoromethyl-pyridin-2-yl)-propionamide]
- EC50: 62.4 nM
- agonistic activity: agonistic activity

SMILES: CC(C)(C(=O)Nc1cccc(C(F)(F)F)c1)S(=O)(=O)CC1CCOCC1 [2-Methyl-2-(tetrahydro-pyran-4-ylmethanesulfonyl)-N-(3-trifluoromethyl-phenyl)-propionamide]
- agonistic activity: agonistic activity

SMILES: CC(C)(C(=O)Nc1ccc(C(F)(F)F)cc1)S(=O)(=O)CC1CCOCC1 [2-Methyl-2-(tetrahydro-pyran-4-ylmethanesulfonyl)-N-(4-trifluoromethyl-phenyl)-propionamide]
- agonistic activity: agonistic activity

SMILES: CC(C)(C(=O)Nc1cc(C(F)(F)F)ccn1)S(=O)(=O)CC1CCOCC1 [2-Methyl-2-(tetrahydro-pyran-4-ylmethanesulfonyl)-N-(4-trifluoromethyl-pyridin-2-yl)-propionamide]
- agonistic activity: agonistic activity

SMILES: CC(C)(C(=O)Nc1nc(C(F)(F)F)cs1)S(=O)(=O)CC1CCOCC1 [2-Methyl-2-(tetrahydro-pyran-4-ylmethanesulfonyl)-N-(4-trifluoromethyl-thiazol-2-yl)-propionamide]
- agonistic activity: agonistic activity

SMILES: CC(C)(C(=O)Nc1ccc(C(F)(F)F)cn1)S(=O)(=O)CC1CCOCC1 [2-Methyl-2-(tetrahydro-pyran-4-ylmethanesulfonyl)-N-(5-trifluoromethyl-pyridin-2-yl)-propionamide]
- EC50: 72.3 nM
- agonistic activity: agonistic activity

SMILES: CC(C)(C(=O)Nc1cccc(C(F)(F)F)n1)S(=O)(=O)CC1CCOCC1 [2-Methyl-2-(tetrahydro-pyran-4-ylmethanesulfonyl)-N-(6-trifluoromethyl-pyridin-2-yl)-propionamide]
- agonistic activity: agonistic activity

SMILES: CCCS(=O)(=O)C(C)(C)C(=O)Nc1cc(-c2ccccc2)nn1C [2-Methyl-N-(2-methyl-5-phenyl-2H-pyrazol-3-yl)-2-(propane-1-sulfonyl)-propionamide]
- agonistic activity: agonistic activity

SMILES: CC(C)S(=O)(=O)C(C)(C)C(=O)Nc1cc(-c2ccccc2)nn1C [2-Methyl-N-(2-methyl-5-phenyl-2H-pyrazol-3-yl)-2-(propane-2-sulfonyl)-propionamide]
- agonistic activity: agonistic activity

SMILES: Cn1nc(-c2ccccc2)cc1NC(=O)C(C)(C)S(=O)(=O)C1CCOCC1 [2-Methyl-N-(2-methyl-5-phenyl-2H-pyrazol-3-yl)-2-(tetrahydro-pyran-4-sulfonyl)-propionamide]
- agonistic activity: agonistic activity

SMILES: Cn1nc(-c2ccccc2)cc1NC(=O)C(C)(C)S(=O)(=O)CC1CCOCC1 [2-Methyl-N-(2-methyl-5-phenyl-2H-pyrazol-3-yl)-2-(tetrahydro-pyran-4-ylmethanesulfonyl)-propionamide]
- agonistic activity: agonistic activity

SMILES: CCCS(=O)(=O)C(C)(C)C(=O)Nc1cc(-c2cccs2)nn1C [2-Methyl-N-(2-methyl-5-thiophen-2-yl-2H-pyrazol-3-yl)-2-(propane-1-sulfonyl)-propionamide]
- agonistic activity: agonistic activity

SMILES: CC(C)S(=O)(=O)C(C)(C)C(=O)Nc1cc(-c2cccs2)nn1C [2-Methyl-N-(2-methyl-5-thiophen-2-yl-2H-pyrazol-3-yl)-2-(propane-2-sulfonyl)-propionamide]
- agonistic activity: agonistic activity

SMILES: CC(C)(C(=O)Nc1nc(-c2ccccc2)ns1)S(=O)(=O)CC1CCOCC1 [2-Methyl-N-(3-phenyl-1,2,4-thiadiazol-5-yl)-2-(tetrahydro-pyran-4-ylmethanesulfonyl)-propionamide]
- agonistic activity: agonistic activity

SMILES: CCCc1cc(NC(=O)C(C)(C)S(=O)(=O)CC2CCOCC2)on1 [2-Methyl-N-(3-propyl-isoxazol-5-yl)-2-(tetrahydro-pyran-4-ylmethanesulfonyl)-propionamide]
- agonistic activity: agonistic activity

SMILES: CC(C)S(=O)(=O)C(C)(C)C(=O)Nc1nc(-c2ccccc2)cs1 [2-Methyl-N-(4-phenyl-thiazol-2-yl)-2-(propane-2-sulfonyl)-propionamide]
- agonistic activity: agonistic activity

SMILES: CC(C)(C(=O)Nc1nc(-c2ccccc2)cs1)S(=O)(=O)CC1CCOCC1 [2-Methyl-N-(4-phenyl-thiazol-2-yl)-2-(tetrahydro-pyran-4-ylmethanesulfonyl)-propionamide]
- EC50: 7.1 nM
- agonistic activity: agonistic activity

SMILES: CC(C)(C(=O)Nc1nc(-c2ccccn2)cs1)S(=O)(=O)CC1CCOCC1 [2-Methyl-N-(4-pyridin-2-yl-thiazol-2-yl)-2-(tetrahydro-pyran-4-ylmethanesulfonyl)-propionamide]
- agonistic activity: agonistic activity

SMILES: CC(C)(C(=O)Nc1nc(-c2cccnc2)cs1)S(=O)(=O)CC1CCOCC1 [2-Methyl-N-(4-pyridin-3-yl-thiazol-2-yl)-2-(tetrahydro-pyran-4-ylmethanesulfonyl)-propionamide]
- agonistic activity: agonistic activity

SMILES: CC(C)(C(=O)Nc1nc(-c2ccncc2)cs1)S(=O)(=O)CC1CCOCC1 [2-Methyl-N-(4-pyridin-4-yl-thiazol-2-yl)-2-(tetrahydro-pyran-4-ylmethanesulfonyl)-propionamide]
- agonistic activity: agonistic activity

SMILES: CCCS(=O)(=O)C(C)(C)C(=O)Nc1nc(-c2ccccc2)c(C)s1 [2-Methyl-N-(5-methyl-4-phenyl-thiazol-2-yl)-2-(propane-1-sulfonyl)-propionamide]
- EC50: 52.2 nM
- agonistic activity: agonistic activity

SMILES: Cc1sc(NC(=O)C(C)(C)S(=O)(=O)CC2CCOCC2)nc1-c1ccccc1 [2-Methyl-N-(5-methyl-4-phenyl-thiazol-2-yl)-2-(tetrahydro-pyran-4-ylmethanesulfonyl)-propionamide]
- EC50: 2.5 nM
- agonistic activity: agonistic activity

SMILES: Cc1ccc(NC(=O)C(C)(C)S(=O)(=O)CC2CCOCC2)nc1 [2-Methyl-N-(5-methyl-pyridin-2-yl)-2-(tetrahydro-pyran-4-ylmethanesulfonyl)-propionamide]
- agonistic activity: agonistic activity

SMILES: CC(C)(C(=O)Nc1nnc(-c2ccccc2)[nH]1)S(=O)(=O)CC1CCOCC1 [2-Methyl-N-(5-phenyl-4H-1,2,4-triazol-3-yl)-2-(tetrahydro-pyran-4-ylmethanesulfonyl)-propionamide]
- EC50: 1.7 nM
- agonistic activity: agonistic activity

SMILES: CC(C)(C(=O)Nc1nsc(-c2ccccc2)n1)S(=O)(=O)CC1CCOCC1 [2-Methyl-N-(5-phenyl-[1,2,4]thiadiazol-3-yl)-2-(tetrahydro-pyran-4-ylmethanesulfonyl)-propionamide]
- EC50: 17.6 nM
- agonistic activity: agonistic activity

SMILES: CCCS(=O)(=O)C(C)(C)C(=O)Nc1ccc(-c2ccccc2)cn1 [2-Methyl-N-(5-phenyl-pyridin-2-yl)-2-(propane-1-sulfonyl)-propionamide]
- agonistic activity: agonistic activity

SMILES: CC(C)(C(=O)Nc1cccc2ccccc12)S(=O)(=O)CC1CCOCC1 [2-Methyl-N-naphthalen-1-yl-2-(tetrahydro-pyran-4-ylmethanesulfonyl)-propionamide]
- agonistic activity: agonistic activity

SMILES: CC(C)S(=O)(=O)C(C)(C)C(=O)Nc1ccc2ccccc2c1 [2-Methyl-N-naphthalen-2-yl-2-(propane-2-sulfonyl)-propionamide]
- agonistic activity: agonistic activity

SMILES: CC(C)(C(=O)Nc1ccc2ccccc2n1)S(=O)(=O)CC1CCOCC1 [2-Methyl-N-quinolin-2-yl-2-(tetrahydro-pyran-4-ylmethanesulfonyl)-propionamide]
- EC50: 5.8 nM
- agonistic activity: agonistic activity

SMILES: CC(C)(C(=O)Nc1cnc2ccccc2c1)S(=O)(=O)CC1CCOCC1 [2-Methyl-N-quinolin-3-yl-2-(tetrahydro-pyran-4-ylmethanesulfonyl)-propionamide]
- EC50: 86 nM
- agonistic activity: agonistic activity

SMILES: CCCS(=O)(=O)C(C)(C)C(=O)Nc1c(C)c(-c2ccccc2)nn1C [N-(2,4-Dimethyl-5-phenyl-2H-pyrazol-3-yl)-2-methyl-2-(propane-1-sulfonyl)-propionamide]
- agonistic activity: agonistic activity

SMILES: Cc1c(-c2ccccc2)nn(C)c1NC(=O)C(C)(C)S(=O)(=O)CC1CCOCC1 [N-(2,4-Dimethyl-5-phenyl-2H-pyrazol-3-yl)-2-methyl-2-(tetrahydro-pyran-4-ylmethanesulfonyl)-propionamide]
- agonistic activity: agonistic activity

SMILES: CC(C)c1cc(NC(=O)C(C)(C)S(=O)(=O)CC2CCOCC2)on1 [N-(3-Isopropyl-isoxazol-5-yl)-2-methyl-2-(tetrahydro-pyran-4-ylmethanesulfonyl)-propionamide]
- agonistic activity: agonistic activity

SMILES: CCC(C)c1cc(NC(=O)C(C)(C)S(=O)(=O)CC2CCOCC2)on1 (stereo not shown) [N-(3-sec-Butyl-isoxazol-5-yl)-2-methyl-2-(tetrahydro-pyran-4-ylmethanesulfonyl)-propionamide]
- EC50: 20 nM
- agonistic activity: agonistic activity

Source: US8829034B2, “Compounds which modulate the CB2 receptor” (Boehringer Ingerlheim International GmbH, priority 2006, dated 2014)
